Assay results as given in US20140194484A1, “Method of Treating Cachexia and Sarcopenia” (priority 2012, published 2014).
Entries after “also recorded” stand apart in the source; their conditions may differ.

How the values were obtained:
[1] = tested on: pre-clinical models of cancer cachexia; assay: pre-clinical models of cancer cachexia; assay type: in vivo
[2] = tested on: patients with cachexia related to late stage colorectal cancer (CRC) or non-small cell lung cancer (NSCLC); assay type: in vivo, human
Experimental: An international multicentre, randomised, double blind, placebo controlled clinical trial was conducted with three parallel treatment groups with dose escalation within each group. Male and female patients aged between 25 to 80 years of age with cachexia related to underlying progressive or recurrent late stage colorectal cancer (CRC) or non-small cell lung cancer (NSCLC) were treated for 16 weeks with either S-pindolol or placebo. All patients received standard of care chemotherapy, radiotherapy and supportive care throughout the study at the discretion of their treating physician.
After provision of written informed consent, patients were assessed for eligibility at screening visits occurring from days -8 to -1. All eligible patients with written informed consent were given a set of performance tests [stair climbing power (SCP), hand grip strength (HGS), short performance battery test (SPBT) and the six minute walk test (SMWT)] and receive a 7 day course of placebo (1 tablet two times per day). Patients able to adequately complete the performance tests and with at least 80% compliance after 7 days (tablet count: at least […]) were then randomised on Day 0 to one of three treatment groups. All patients attended for visits on days 7, 14, 21, 28, (each +/−1 day), 56, 84, 112, and 140 (each +/−7 days).
The dose of S-pindolol or placebo was escalated by the investigator in a blinded fashion as described below under the heading “Dose Escalation”. The maximum period of drug titration was 4 weeks and the minimum period was 2 weeks. The patients were required to attend study visits at 1 week intervals after the start of the titration phase until completion of dose escalation. The aim of dose escalation for all subjects is to reach the target dose of 8 tablets per day (4 tablets bd) or the maximum tolerated dose for a particular patient within the first 4 week period. Dose titration was achieved by varying the number of tablets taken from bottle 2. This was done such that patients will be randomised to receive either placebo, 2.5 mg S-pindolol twice daily, 5 mg S-pindolol twice daily, 7.5 mg S-pindolol twice daily, or 10 mg S-pindolol twice daily according to tolerance of the study drug.
• S-pindolol or placebo was administered over a 16 week period. The treatment regimens for the study are summarised below. • At regular monitoring visits, a study monitor checked that all code-break envelopes remained intact.
• Product was taken orally with food as prescribed two times daily
A SMWT was conducted on days 0, 28, 56, 84 and 112. The SMWT was conducted as described by Paul L Enright (Respiratory Care, August 2003 Vol 48 No 8)^12. A straight, level and even area at least 20 meter long and 2 meters wide was marked out at each investigational site and used for the SMWT for all subjects at each time point. Identical chairs were placed at each end of the 20 meter track.
The SCP test was conducted on days 0, 28, 56, 84 and 112. The SCP test was modified from that described by Bean et al (Arch Phys Med Rehabil Vol 88, May 2007) to account for the different stairway configurations at the investigational sites.
A HGS test was conducted on days 0, 28, 56, 84 and 112. The HGS test was modified from that described by Bassey (1990; NIH, 1990). A standard handgrip dynamometer (provided by Sponsor) that can be adjusted for hand size was used at all sites. Both hands were alternately measured in triplicate, followed by a fourth attempt on the dominant hand only. After an explanation the subject squeezed the handle as forcefully as possible for a few seconds and then released. Subjects were encouraged verbally using a standard script and the best score (in kilograms) of the dominant hand recorded in the CRF.
DEXA was performed at selected DEXA scan centres on days at day -1, 56 and 112.
The maximum period of drug titration was 4 weeks and the minimum period was 2 weeks. […]

[3] = compared with other β blockers studied
[4] = high dose (10 mg bd), ITT population, DEXA

`CC(C)NC[C@H](O)COc1cccc2[nH]ccc12` [S-pindolol] was tested, and the “benefit compared to placebo and racemic pindolol (FIG. 4)” value ([1]; FIG. 4) was “particularly beneficial”, the “effects on aspects of cancer cachexia” value [1, 3] was “significant effects on all aspects” and the impact upon survival [1, 3] was “greatest impact upon survival”. The “efficacy compared with racemic pindolol” value ([1]; dose for dose basis, treatment of cachexia) was “superior efficacy to the racemic parent material; also recorded: better effects than racemic pindolol”, the “Six minute walk test change” value ([2]; 2.5 and 10 mg bd vs placebo) was “trend towards dose response” and the “Stair climbing power change” value ([2]; 2.5 and 10 mg bd vs placebo) was “trend towards dose response”. For the same compound, the “Hand Grip Strength change, efficacy compared to placebo” value ([2]; high dose (10 mg bd), ITT population) was “statistically significant”, the “Absolute weight change (primary endpoint), efficacy compared to placebo” value ([2]; high dose (10 mg bd), ITT population, 16 weeks) was “statistically significant” and the “Fat mass change, efficacy compared to placebo” value [2, 4] was “statistically significant”. The “Lean mass change, efficacy compared to placebo” value [2, 4] was “statistically significant” and the “survival, difference between arms (FIG. 7)” value ([2]; low dose, high dose MT-102 and placebo arms) was “No significant differences in survival”.
